# According to patent publication US12729381B2, “Methods and compositions for inactivating interleukin-2-inducible t-cell kinase (ITK)” (priority 2020, dated 2026):
# Non-standard residues stand in square brackets, D forms with d. No end group written: not given here. *: point of attachment. FITC = O=C1OC2(c3ccc(O)cc3Oc3cc(O)ccc32)c2ccc(NC(=S)*)cc21; pY = N[C@@H](Cc1ccc(OP(=O)(O)O)cc1)C(=O)O
# System: SLP76: ITK signaling
# Assay: Western blot of signaling proteins in mouse T cells stimulated with anti-CD3 and anti-CD28
# Format: cell-based
# Method: Western blotting: For protein analysis, T cells were either nonstimulated, or stimulated with anti-CD3 and anti-CD28 for 24 hours overnight, and were lysed with freshly prepared lysis buffer (RIPA Buffer (Fisher Scientific cat #PI89900)+cOmplete Protease Inhibitor Cocktail (Sigma-Aldrich; cat #11697498001)) and centrifuged for 10 minutes at 14000 rpm at 4° C. Protein aliquots of 70 μg of protein were loaded on a 12-18% denaturing polyacrylamide gel and transferred to nitrocellulose membranes for immunoblot analysis using antibodies specific to proteins of interest.
# To ensure that the peptide easily enters cells and that its cellular localization can be monitored, a C-terminal TAT peptide (GRKKRRQRRRPQ) (SEQ ID NO:3) and an N-terminal fluorescent FITC dye were incorporated, respectively, and named it SLP76pTYR peptide ([…]). SLP76pTYR peptide (FITC Dye ^132NEEEEAPVEDDADpYEPPPSNDEEA^155-TAT) (SEQ ID NO:5) and non-specific control peptide (FITC Dye-[…]-TAT) (SEQ ID NO:6) were synthesized by Genscript Inc (Piscataway, NJ). These peptides were initially dissolved in 3% ammonia water to a final concentration of 10 mg/mL and then further diluted into PBS to a final concentration of 0.1 mg/mL. Fresh splenocytes were isolated from WT mice, and T cells were generated from splenocytes as previously described (Baker et al., 2001). Briefly, T cells were isolated from splenocytes using MACS beads (Miltenyi Biotec), then cultured in complete RPMI media (3×10^6 cells/mL) and plated on anti-CD3 ([…]; Biolegend; cat #100202) and anti-CD28 ([…]; Biolegend; cat #102116) antibody-coated tissue culture plates until otherwise specified. T cells were incubated with SLP76pTYR, control peptide or vehicle alone at different concentrations ranging from 100 ng/ml to 1 mg/ml in the presence of 4 mg/ml of protamine sulfate. […] Within 60 minutes, it was observed that peptides were inside the cells. Cells were cultured for 5 minutes prior to investigating signaling changes. Cells were examined for the presence of FITC by microscopy using a Leica DMi8 microscope equipped with an infinity total internal reflection fluorescence (TIRF) and DIC modules, a Lumencor SOLA SE II light box, a 150 mW 488 (GFP) laser and filter cube, a 100x/1.47 NA objective, and an Andor iXon Life 897 EMCCD camera. FITC expression was confirmed by flow cytometry as well. Cells were lysed and used in Western blots.
# ITK deficiency is known to enhance the development of regulatory T cells (Tregs) (Elmore et al., 2020, Owen et al., 2019) so the peptide inhibitor was tested to determine whether inhibition of the ITK: SLP76Y145 interactions using SLP76pTYR would induce Tregs. First, the frequency of Tregs was examined by expression of CD4^+ and FoxP3^+ (FIG. 18A). Next, total mouse T cells were stimulated with anti-CD3 (Sugie et al., 2004) in the presence of either SLP76pTYR, nonspecific peptide, or vehicle alone for 5 to 24 hours, and cells were harvested and examined for the presence of Tregs (CD4^+CD25^+FoxP3^+). […] Next, the effects of SLP76pTYR peptide on human PBMC samples from healthy human patients was investigated. T cells from these patients were stimulated with anti-CD3 (OKT3) (Karimi et al., 2005) for 5 minutes in the presence of SLP76pTYR or vehicle alone. […] No differences in stimulated or unstimulated total human AKT (FIG. 18E and FIG. 28H) was observed, providing a showing that the SLP76pTYR peptide has an impact on signaling pathways downstream of SLP76 in both mouse and human T cells. […] Next, the ability of SLP76pTYR peptide to affect the production of proinflammatory cytokines in human PBMCs was investigated. T cells from healthy human were stimulated with anti-CD3 (OKT3) and anti-CD28 in the presence of SLP76pTYR or vehicle alone, along with Brefeldin A. T cells incubated with SLP76pTYR or vehicle alone were also examined in the presence of PMA+lonomycin and Brefeldin A for 6 hours. […]
# [1] = anti-CD3 and anti-CD28 for 5 minutes, vs vehicle alone
substance,measurement,setting,value
FITC Dye ^132NEEEEAPVEDDADpYEPPPSNDEEA^155-TAT ({FITC}-NEEEEAPVEDDAD[pY]EPPPSNDEEAGRKKRRQRRRPQ) [SLP76pTYR],off-target effects against other kinases,"PI3K and AKT, mouse and human T cells (FIG. 28A-H)","minimal off-target effects against other kinases, including PI3K and AKT"
same,"ITK phosphorylation, stimulated",[1],reduction in ITK phosphorylation
same,"PLCγ-1 phosphorylation, stimulated",[1],a reduction in stimulated phosphorylation PLCγ-1 was observed
same,"ITK phosphorylation, non-stimulated","non-stimulated cells, vs vehicle alone",A reduction in non-stimulated phosphorylation ITK was not observed
same,phosphorylation of AKT,"stimulated and non-stimulated, also total AKT",No differences in the phosphorylation of PI3K or AKT was observed
same,phosphorylation of PI3K,"stimulated and non-stimulated, also total PI3K",No differences in the phosphorylation of PI3K or AKT was observed
same,non-stimulated phospho-PLCγ-1 and stimulated or non-stimulated PLCγ-1,vs vehicle alone,no reduction with non-stimulated phospho-PLCγ-1or either stimulated or non-stimulated PLCγ-1 was observed
same,"total ITK, stimulated or non-stimulated",vs vehicle alone,nor was any reduction for non-stimulated total ITK or stimulated total ITK observed
